Assay results: paper PMC10318527, “Utilization of dietary mixed-linkage β-glucans by the Firmicute Blautia producta” (The Journal of Biological Chemistry, 2023)
Like-named read-outs stand apart in the source and are kept apart here.

Experiments:
BpGH16MLG = assay: Initial screening of BpGH16MLG against substrates (TLC); type: biochemical, Blautia producta ATCC 27340; conditions: pH 5.7, 37 °C, 2 h
Method: After the appropriate incubation time, the reaction was terminated by boiling (5 min), and generated oligosaccharides were analyzed by thin layer chromatography (TLC). Typically, 1 μl of the reaction mixture was used for TLC analysis. TLC analysis was performed on Silica Gel 60 F254 (Merck), and produced sugars were visualized by spraying TLC with 5% H2SO4 in ethanol, followed by heating.

BpSBPMLG = BpSBPMLG (Blautia producta, UniProt A0ABX6JB09); assay: Isothermal titration calorimetry of oligosaccharide binding to BpSBPMLG; design: species or system Blautia producta ATCC 27340; conditions: for -TΔS^0 / n (binding stoichiometry) / ΔG^0 / ΔH: ITC at 25 °C, 10 mM sodium phosphate pH 7.0
Sequence of BpSBPMLG (A0ABX6JB09 entry or part of it): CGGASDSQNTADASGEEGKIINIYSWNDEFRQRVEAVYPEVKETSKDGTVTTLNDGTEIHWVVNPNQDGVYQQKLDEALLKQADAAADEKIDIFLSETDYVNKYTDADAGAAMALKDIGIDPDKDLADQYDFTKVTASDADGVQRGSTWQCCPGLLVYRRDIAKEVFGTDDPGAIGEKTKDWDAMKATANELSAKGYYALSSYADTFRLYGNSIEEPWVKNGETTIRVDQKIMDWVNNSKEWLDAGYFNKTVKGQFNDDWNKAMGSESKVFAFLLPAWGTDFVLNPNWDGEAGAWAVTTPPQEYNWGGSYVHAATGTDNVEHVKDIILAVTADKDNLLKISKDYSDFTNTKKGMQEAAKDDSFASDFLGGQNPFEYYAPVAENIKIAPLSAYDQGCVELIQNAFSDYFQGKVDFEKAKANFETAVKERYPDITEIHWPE
Method: The binding of β-(1,4), β-(1,3), and MLG-oligosaccharides to BpSBPMLG was measured at 25 °C in 10 mM sodium phosphate buffer (pH 7) using a MicroCal PEAQ-ITC (Malvern). The protein was extensively dialyzed against 10 mM sodium phosphate and all glycan ligands were also dissolved in the same buffer to minimize the heat of dilution. 13 injections of an oligosaccharide were titrated on BpSBPMLG present in the sample cell. Various preliminary titration setups were tried by changing amounts of protein (5–100 μM) and ligand (50 μM–10 mM) to get the best experimental conditions. Thermodynamic binding parameters [calculates binding affinity (Kd), stoichiometry (n), enthalpy (ΔH), Gibbs free energy change (ΔG), and entropy (ΔS)] were determined using the MicroCal PEAQ-ITC analysis software.

BpGH94MLG [1] = target: T1, BpGH94MLG (Blautia producta, UniProt A0A7G5MNS2); assay: Phosphorolysis activity of BpGH94MLG on substrates (TLC); type: biochemical, Blautia producta ATCC 27340; conditions: inorganic phosphate, 37 °C
T1 sequence (A0A7G5MNS2 1-804): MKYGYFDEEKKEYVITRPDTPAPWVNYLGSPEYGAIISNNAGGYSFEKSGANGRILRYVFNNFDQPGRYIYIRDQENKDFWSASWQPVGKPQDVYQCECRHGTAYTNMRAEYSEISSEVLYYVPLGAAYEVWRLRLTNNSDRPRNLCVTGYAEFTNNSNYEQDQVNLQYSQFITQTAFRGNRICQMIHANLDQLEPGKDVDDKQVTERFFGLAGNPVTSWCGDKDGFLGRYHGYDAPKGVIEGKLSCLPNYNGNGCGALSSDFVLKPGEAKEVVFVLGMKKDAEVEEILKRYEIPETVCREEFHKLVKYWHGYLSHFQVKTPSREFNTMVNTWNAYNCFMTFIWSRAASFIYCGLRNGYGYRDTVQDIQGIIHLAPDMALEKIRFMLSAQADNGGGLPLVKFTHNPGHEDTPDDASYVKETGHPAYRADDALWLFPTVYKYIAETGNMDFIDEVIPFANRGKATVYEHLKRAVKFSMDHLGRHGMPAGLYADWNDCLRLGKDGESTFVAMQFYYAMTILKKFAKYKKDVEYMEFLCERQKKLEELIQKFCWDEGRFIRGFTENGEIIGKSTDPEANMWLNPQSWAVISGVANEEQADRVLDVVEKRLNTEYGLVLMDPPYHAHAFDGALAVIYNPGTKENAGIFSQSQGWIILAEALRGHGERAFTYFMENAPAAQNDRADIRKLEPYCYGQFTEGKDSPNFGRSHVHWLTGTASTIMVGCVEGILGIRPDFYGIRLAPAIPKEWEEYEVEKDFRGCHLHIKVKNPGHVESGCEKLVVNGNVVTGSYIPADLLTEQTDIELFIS
Method: (§1) TLC was used for analyzing enzymatic actions. […] Kinetics parameters for BpGH94MLG were determined with G4G3G, G4G4G3G and cellotriose, following a p-hydroxybenzoic acid hydrazide (PAHBAH) reducing sugar assay ([69]).

BpGH3-AR8MLG = BpGH3-AR8MLG (Blautia producta, UniProt A0ABX6J8C8); type: biochemical, Blautia producta ATCC 27340
Sequence of BpGH3-AR8MLG (A0ABX6J8C8 entry or part of it): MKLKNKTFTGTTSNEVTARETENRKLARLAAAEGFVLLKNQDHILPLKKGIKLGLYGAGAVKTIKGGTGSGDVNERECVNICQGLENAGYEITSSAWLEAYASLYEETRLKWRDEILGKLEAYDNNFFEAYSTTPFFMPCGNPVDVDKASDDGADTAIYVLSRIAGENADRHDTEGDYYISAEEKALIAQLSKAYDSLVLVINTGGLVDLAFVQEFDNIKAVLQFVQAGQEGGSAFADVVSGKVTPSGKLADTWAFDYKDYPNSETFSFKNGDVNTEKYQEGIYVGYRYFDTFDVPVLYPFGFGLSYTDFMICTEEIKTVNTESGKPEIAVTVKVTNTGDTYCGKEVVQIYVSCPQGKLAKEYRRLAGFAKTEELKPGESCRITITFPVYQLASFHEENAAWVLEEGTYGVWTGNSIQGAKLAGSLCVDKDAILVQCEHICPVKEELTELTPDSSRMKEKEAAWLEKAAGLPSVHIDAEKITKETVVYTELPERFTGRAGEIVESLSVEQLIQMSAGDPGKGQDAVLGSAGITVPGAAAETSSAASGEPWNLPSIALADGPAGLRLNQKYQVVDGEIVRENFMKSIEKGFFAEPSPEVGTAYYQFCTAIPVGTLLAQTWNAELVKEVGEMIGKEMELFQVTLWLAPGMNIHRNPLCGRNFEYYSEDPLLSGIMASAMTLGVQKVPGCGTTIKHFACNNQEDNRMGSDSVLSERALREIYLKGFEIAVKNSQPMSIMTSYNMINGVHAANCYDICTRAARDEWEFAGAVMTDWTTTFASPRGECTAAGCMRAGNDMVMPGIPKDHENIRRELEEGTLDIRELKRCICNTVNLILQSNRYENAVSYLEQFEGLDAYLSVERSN
Method: (§2) 150 μl of a freshly prepared 8:2 mixture of reagent A (50 mM sodium sulfite, 0.3 M 4-hydroxybenzhydrazide and 0.6 M HCl) and reagent B (50 mM trisodium citrate, 10 mM CaCl2, 0.5 M NaOH) were added to 50 μl sample. The reaction cocktail was boiled for 10 min at 100 °C. After the reaction was cooled down, the absorbance was recorded at 410 nm using the SpectraMax i3x multi-mode microplate reader. A calibration curve with different concentrations of glucose (0, 2, 4, 8, 16, 40, 80, 100, 200, 300, and 500 μM) was employed for each experiment to calculate the released amount of glucose (reducing end equivalents). The same samples were also used for control measurement, and the control value was subtracted from test reading prior to calculate kinetics parameters. In all cases, the Km, Vmax, and kcat were analyzed on GraphPad Prism. Three independent replicates were used for each test. TLC analyses were used for understanding the enzymatic degradation profiles of various oligosaccharides.

TaCDP = test system: TaCDP; design: method as in PMID 28687766; conditions: phosphorolytic reaction; cited from earlier work
Rt/CtCDP = test system: Rt/CtCDP; design: method as in PMID 12153715; conditions: phosphorolytic reaction; cited from earlier work
RaCDP = test system: RaCDP; design: method as in PMID 23802549; conditions: phosphorolytic reaction; cited from earlier work
BpGH94MLG [2] = target: T1, BpGH94MLG; assay: Phosphorolysis kinetics of BpGH94MLG (PAHBAH assay); type: biochemical, Blautia producta ATCC 27340
Method: as §1

BpGH3-X62MLG = target: T2, BpGH3-X62MLG (Blautia producta, UniProt A0ABX6JIM0); assay: Hydrolysis kinetics of BpGH3-X62MLG (PAHBAH assay, TLC); conditions: TLC
T2 sequence (A0ABX6JIM0 1-920): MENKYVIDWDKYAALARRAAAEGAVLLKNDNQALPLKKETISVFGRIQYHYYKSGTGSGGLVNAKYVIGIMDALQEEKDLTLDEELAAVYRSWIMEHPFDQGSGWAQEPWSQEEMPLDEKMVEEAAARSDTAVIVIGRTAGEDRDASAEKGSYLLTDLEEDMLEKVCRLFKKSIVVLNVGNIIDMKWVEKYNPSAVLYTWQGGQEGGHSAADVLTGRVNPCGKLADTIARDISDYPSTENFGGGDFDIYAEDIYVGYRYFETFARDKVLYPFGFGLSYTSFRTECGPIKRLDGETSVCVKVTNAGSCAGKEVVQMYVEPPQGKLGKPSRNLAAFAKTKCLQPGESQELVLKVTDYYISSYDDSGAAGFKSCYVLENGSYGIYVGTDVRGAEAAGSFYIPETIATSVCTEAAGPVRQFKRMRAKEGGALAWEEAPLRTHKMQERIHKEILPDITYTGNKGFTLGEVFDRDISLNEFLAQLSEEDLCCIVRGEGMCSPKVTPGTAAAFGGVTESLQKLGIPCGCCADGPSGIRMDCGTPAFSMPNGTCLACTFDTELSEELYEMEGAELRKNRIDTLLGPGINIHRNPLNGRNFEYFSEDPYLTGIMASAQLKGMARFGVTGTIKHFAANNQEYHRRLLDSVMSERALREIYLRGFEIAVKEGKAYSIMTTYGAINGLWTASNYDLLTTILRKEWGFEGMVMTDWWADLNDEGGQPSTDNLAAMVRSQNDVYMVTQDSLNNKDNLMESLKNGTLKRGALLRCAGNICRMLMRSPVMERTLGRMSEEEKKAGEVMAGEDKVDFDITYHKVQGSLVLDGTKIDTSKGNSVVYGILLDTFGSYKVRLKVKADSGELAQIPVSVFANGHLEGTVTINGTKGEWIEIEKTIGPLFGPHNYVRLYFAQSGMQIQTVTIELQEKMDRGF
Method: as §2

[3] = target: β-mannooligosaccharide binding protein of Roseburia; design: method as in PMID 30796211; conditions: cited from earlier work
BpGH16MLG (BPGH16) = assay: Michaelis-Menten kinetics of BpGH16MLG on β-glucans (DNS assay); type: biochemical, Blautia producta ATCC 27340; conditions: native BPGH16; DNS assay; pH 5.7, 37 °C
Method: Then, reactions were terminated by boiling for 5 min. Enzymatic assays were determined with 3,5- dinitrosalicylic acid (DNS) assay ([85]). In brief, 0.05 g Na2SO3 and 1 g DNS were mixed in a 50 ml water-containing reagent bottle and stirred about 6 h using a magnetic stirrer. After that, 200 μl phenol was added and made up to 100 ml. A working solution of DNS was prepared by adding 50 μl glucose (20% (w/v) stock) in prepared 100 ml of reagent mixtures and immediately used for experiments without adding NaOH. 80 μl DNS reagent was added to the reaction mixtures and incubated at 100 °C for 10 min, followed by ice-cooling for 10 min. Consequently, recorded the developed color spectrophotometrically at 575 nm ([85]). A standard curve generated by different concentrations of maltose was used for determining released reducing sugars in each case.

B. producta ATCC 27340 [4] = test system: B. producta ATCC 27340; design: method as in PMID 33043794; conditions: cited from earlier work
B. producta ATCC 27340 [5] = assay: Growth of B. producta on β-glucans; type: cell-based, Blautia producta ATCC 27340; conditions: minimal medium containing 1% glucan
Method: Active culture of B. producta and culture conditions were maintained following the recently reported procedure ([31]). Once B. producta grew, cells were centrifuged, and the obtained supernatant was decanted. A pellet of cells was then washed three times with phosphate-buffered saline (PBS) and washed cells were suspended in 2 ml PBS. […] The growth assessment experiments were performed for 96 h, following our recently established protocol ([82]).

[6] = PAHBAH assay, 100 mM HEPES pH 6.5, 37 °C

Molecule | activity of BpGH16MLG on substrate (initial screening) (BpGH16MLG) | Kd (BpSBPMLG) | -TΔS^0 (BpSBPMLG) | n (binding stoichiometry) (BpSBPMLG) | ΔG^0 (BpSBPMLG) | ΔH (BpSBPMLG) | phosphorolysis activity of BpGH94MLG (in words) (BpGH94MLG [1]) | Km (BpGH16MLG (BPGH16)) | kcat (BpGH16MLG (BPGH16)) | also measured
OC[C@H]1O[C@@H](O[C@H]2[C@H](O)[C@@H](O)[C@H](O[C@H]3[C@H](O)[C@@H](O)C(O)O[C@@H]3CO)O[C@@H]2CO)[C@H](O)[C@@H](O)[C@@H]1O (stereo partly drawn) [Cellotriose] | did not show activity | 1.74 µM | 0.8 kcal/mol | 0.77 ± 0.02 | -7.9 kcal/mol | -7.1 ± 0.31 kcal/mol | cleaved | – | – | Km (BpGH3-AR8MLG; [6]): 260 ± 30 µM; kcat (BpGH3-AR8MLG; [6]): 15 ± 0.2 s⁻¹; Km (TaCDP): 94 µM; kcat (TaCDP): 0.28 s⁻¹; Km (Rt/CtCDP): 810 µM; kcat (Rt/CtCDP): 4 s⁻¹; Km (RaCDP): 6060 µM; kcat (RaCDP): 76.2 s⁻¹
OC[C@H]1O[C@@H](O[C@H]2[C@H](O)[C@@H](O)[C@H](O[C@H]3[C@H](O)[C@@H](CO)OC(O)[C@@H]3O)O[C@@H]2CO)[C@H](O)[C@@H](O)[C@@H]1O (stereo partly drawn) [G4G3G, Glc-β-1-4-Glc-β-1-3-Glc] | – | 1.01 µM | 4.4 kcal/mol | 0.42 ± 0.01 | -8.18 kcal/mol | -12.6 ± 0.32 kcal/mol | cleaved | – | – | Km lower compared to cellotriose (BpGH94MLG [2]): about 1.85 fold; cleavage by BpGH3-AR8MLG (in words) (BpGH3-AR8MLG; TLC): cleaved; cleavage by BpGH3-X62MLG (in words) (BpGH3-X62MLG): cleaved
OC[C@H]1O[C@@H](O[C@H]2[C@H](O)[C@H](O)[C@H](O[C@H]3[C@H](O)[C@H](O)[C@H](O[C@H]4[C@H](O)[C@H](O)C(O)O[C@@H]4CO)O[C@@H]3CO)O[C@@H]2CO)[C@@H](O)[C@@H](O)[C@@H]1O (stereo partly drawn) [mannotetraose] | – | – | – | – | – | – | – | – | – | Kd [3]: 3.89 µM
Laminarin | did cleave | – | – | – | – | – | – | 0.24 ± 0.03 mg/mL | 43 ± 0.6 s⁻¹ | growth of B. producta on the glucan (B. producta ATCC 27340 [4]): does not support the growth
Lichenan | did cleave | – | – | – | – | – | – | 0.13 ± 0.02 mg/mL | 36 ± 0.5 s⁻¹ | growth of B. producta on the glucan (B. producta ATCC 27340 [5]): able to grow
